Data set [1] has as its system C. albicans ATCC 10231 (strain B) biofilm. Briefly: Biofilm disruption assay (XTT, SMIC90), POS and EBA. It counts as cell-based, Candida albicans. Conditions: drug alone. The procedure: (§1) Biofilm disruption assays. […] Biofilm assays were performed in 96-well plates using XTT [2,3-bis(2-methoxy-4-nitro-5-sulfophenyl)-2H-tetrazolium-5-carboxanilide] to measure the viability of the biofilm as previously described. An overnight culture of yeast was grown at 35° C. in YEPD medium with shaking at 200 rpm. The overnight culture was diluted in RPMI 1640 medium to an OD600 between 0.12 and 0.15 to make a working stock. Working stock was transferred to the 96-well plate in 100 μL aliquots, leaving one column empty for the sterile control. The plates were incubated at 37° C. for 24 h to allow formation of the biofilm. The medium and planktonic cells from the plate were then aspirated. PBS was then used to wash any remaining planktonic cells off of the biofilm wells. 100 μL of PBS was aliquoted into wells and then removed. The wells were washed 3 times with PBS. […] Plates were incubated at 37° C. for 24 h. Finally, the plates were washed 3 times with PBS before adding 100 μL of XTT dye. The XTT was prepared by dissolving XTT at 0.5 mg/mL concentration in sterile PBS. Before adding to a plate, 1 μL of 10 mM menadione in acetone was added to 10 mL of the 0.5 mg/mL solution of XTT. After addition of XTT (containing menadione), the plates were incubated at 3 h at 37° C. in the dark. 80 μL of liquid from each well was transferred to a new plate. Plates were then read with a SpectraMax M5 plate reader (Molecular Devices, Sunnyvale, Calif., USA) for absorbance at 450 nm. For these experiments, we determined the sessile MIC (SMIC90), which is defined as the drug concentration required to inhibit the metabolic activity of biofilm by 90% compared to the growth control. The SMIC90 values were used to calculate the FICI as described above (TABLE 10). The plates used to determine the SMIC90 are provided in FIGS. 91A-H. Each assay was performed in duplicate.
In general terms: Tetrazolium dyes change colour on reduction, which living cells bring about.

Data set [2] concerns C. albicans ATCC 64124 (strain F) biofilm. The description is as above. The data set is classed as cell-based, Candida albicans. The settings on record: drug alone. As for the experimental part: as §1
For data set [3] the test system is unchanged. Put plainly: Biofilm disruption assay (XTT, SMIC99), azoles + compound 2. It counts as cell-based, Candida albicans. As for the experimental part:
In order to investigate the synergistic effect of azoles and our compounds on inhibiting biofilm formation of C. albicans ATCC 64124 (strain F), we performed a biofilm disruption assay in a checkerboard setup and used XTT [2,3-bis(2-methoxy-4-nitro-5-sulfophenyl)-2H-tetrazolium-5-carboxanilide] reduction to examine the metabolic activity of the biofilm. Briefly, C. albicans ATCC 64124 (strain F) was grown overnight in YEPD broth at 35° C. The culture was then diluted to an OD600 of 0.12 (equivalent to 1×10^6 CFU/mL) and 100 μL was placed into each well of a 96-well plate. The cells were incubated at 37° C. for 24 h for growth. The following day, the spent medium containing planktonic cells was aspirated and each wells were carefully washed three times with sterile phosphate buffer saline (PBS). […] The negative control (medium only) and the positive control (biofilm plus medium) wells were also included in the same 96-well plate. The plates were then incubated at 37° C. statically for additional 24 h and then washed with sterile PBS. 100 μL of a XTT (0.5 mg/mL)/menadione (1 μM) solution was added to each well, covered with aluminum foil, and incubated for 2 h at 37° C. Then, 80 μL of the colored supernatant from each well was transferred to a new 96-well plate, and the absorption was read at OD490. The percent metabolic activity of the formed biofilm at various drug concentration combinations was calculated by dividing the metabolic activity of biofilm formed for that well by that of the biofilm formed in the growth control well (in the absence of any drug). For these experiments, the sessile MIC (SMIC99) was determined, which is defined as the drug concentration required to inhibit the metabolic activity of biofilm by 99% compared to the growth control. The assay for each combination was performed in duplicates.

Data set [4] has as its system C. glabrata ATCC 2001 (strain H) biofilm. Put plainly: Biofilm disruption assay (XTT, SMIC90), POS and EBA. It counts as cell-based, Candida glabrata. The procedure: as §1
The test system of a further data set is BEAS-2B cells. Briefly: Mammalian cytotoxicity assay, azoles and compound 2. The data set is classed as cell-based, human. An excerpt: (§2) David K. Orren (University of Kentucky, Lexington, Ky.) and Prof. David J. Feola (University of Kentucky, Lexington, Ky.), respectively.
For the next data set, the system named is HEK-293 cells. Described as above. The data set is classed as cell-based, human.
Excerpt: as §2

[5] abbreviates: POS 16 μg/mL + 32 μg/mL compound 2.

For the compound `CC[C@@H]([C@H](C)O)n1ncn(-c2ccc(N3CCN(c4ccc(OC[C@@H]5CO[C@@](Cn6cncn6)(c6ccc(F)cc6F)C5)cc4)CC3)cc2)c1=O` [POS, posaconazole], the SMIC90 in data set [1], in data set [2] and in data set [4] (drug alone) was above 32 µg/mL in each case. The “SMIC alone (μg/mL) Azole” value in data set [3] (azole alone, sessile cells) is above 32 µg/mL. The “SMIC combo (μg/mL) Azole” value in data set [3] (azole in combination with compound 2) turned out to be 0.5 µg/mL. Further, the SMIC90 combo in data set [4] (combination POS + EBA, SMIC90 of the labelled drug) turned out to be 0.06 µg/mL. Also, the cell survival was 71±11% with BEAS-2B cells (POS 8 μg/mL + 32 μg/mL compound 2); 38±6% with BEAS-2B cells (setting [5]); 80±8% in the data set with HEK-293 cells (POS 1 μg/mL + 32 μg/mL compound 2); 40±6% in the data set on HEK-293 cells (setting [5]); “around 45±12%” in the data set on HEK-293 cells (drug alone at 16 μg/mL).

The record behind these values is patent US20190015400A1, “Antifungal Compositions” (priority 2017, published 2019).
